The values below come from patent publication EP0252525B1, “Alpha-amylase assay using modified oligosaccharide and process for producing said modified oligosaccharide” (WAKO PURE CHEMICAL INDUSTRIES, LTD, priority 1986, dated 1988).

What all share (type): biochemical
Assay [1] concerns the target T1, HPA (Homo sapiens, UniProt P04746).
T1 sequence (P04746 16-511): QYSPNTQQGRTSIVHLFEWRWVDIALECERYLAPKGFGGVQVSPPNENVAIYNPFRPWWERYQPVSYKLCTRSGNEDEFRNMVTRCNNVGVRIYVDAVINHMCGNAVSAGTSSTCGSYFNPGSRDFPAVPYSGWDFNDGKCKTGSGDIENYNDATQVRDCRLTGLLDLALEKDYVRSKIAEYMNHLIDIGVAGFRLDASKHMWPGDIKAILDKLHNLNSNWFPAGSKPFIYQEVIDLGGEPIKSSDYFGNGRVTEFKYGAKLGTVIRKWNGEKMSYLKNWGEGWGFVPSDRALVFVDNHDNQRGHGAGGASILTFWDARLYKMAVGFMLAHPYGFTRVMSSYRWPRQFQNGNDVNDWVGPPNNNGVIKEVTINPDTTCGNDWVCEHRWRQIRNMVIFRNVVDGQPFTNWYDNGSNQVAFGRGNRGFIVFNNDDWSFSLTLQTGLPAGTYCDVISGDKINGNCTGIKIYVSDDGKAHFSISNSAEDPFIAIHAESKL
Description: Km determination (Lineweaver-Burk plot, products measured by HPLC). Particulars: 50 mM BES/NaOH buffer pH 7.6, 37°C, 5 min. The method, then: The amounts of the products were measured with HPLC.

Assay [2] concerns the target T1, HPA. Description: Binding mode (distribution of hydrolysis products) by HPLC. Particulars: for Hydrolysis product G2P: share of product G2P; for Hydrolysis product G3P: share of product G3P; for Hydrolysis product G4P: share of product G4P; for Hydrolysis product GP: share of product GP. The method, then: (§1) The binding mode of each substrate were measured with high-performance liquid chromatography (HPLC) as described above.

The next assay concerns the target T2, HSA (Homo sapiens, UniProt P0DUB6).
T2 sequence (P0DUB6 16-511): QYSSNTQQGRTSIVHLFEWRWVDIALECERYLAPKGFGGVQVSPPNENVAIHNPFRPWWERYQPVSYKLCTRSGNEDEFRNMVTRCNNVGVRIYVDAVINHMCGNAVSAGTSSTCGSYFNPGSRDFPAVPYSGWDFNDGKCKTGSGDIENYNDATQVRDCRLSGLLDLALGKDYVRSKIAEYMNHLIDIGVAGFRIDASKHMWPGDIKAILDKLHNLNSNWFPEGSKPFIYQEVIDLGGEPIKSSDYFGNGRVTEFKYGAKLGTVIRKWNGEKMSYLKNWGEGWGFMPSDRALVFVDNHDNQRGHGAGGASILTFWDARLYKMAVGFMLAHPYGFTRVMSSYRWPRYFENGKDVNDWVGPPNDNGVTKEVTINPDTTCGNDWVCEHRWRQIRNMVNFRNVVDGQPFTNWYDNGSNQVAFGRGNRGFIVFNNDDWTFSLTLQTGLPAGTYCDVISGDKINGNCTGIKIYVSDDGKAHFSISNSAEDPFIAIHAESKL
The assay is described as above. Particulars: for Hydrolysis product G2P: share of product G2P; for Hydrolysis product G3P: share of product G3P; for Hydrolysis product G4P: share of product G4P; for Hydrolysis product GP: share of product GP. The method, then: as §1

The target in assay [3] is T3, human pancreatic α-amylase (HPA) (Homo sapiens, UniProt P04746).
T3 sequence (P04746 16-511): T1 sequence (P04746 16-511)
Description: Hydrolysis rate of substrates by α-amylase (relative to G5P). Particulars: substrate 1.0 mM, pH 7, value of G5P taken as 1. The method, then: (§2) The above-mentioned advantages can be shown by using the following oligosaccharides: [drawing 6] n = 2: BG4P n = 3: BG5P (the present invention) n = 4: BG6P n = 5: BG7P [drawing 7] n = 2: G4P n = 3: G5P (standard) n = 4: G6P n = 5: G7P [drawing 8] n = 2: BDG4P n = 3: BDG5P n = 4: BDG6P n = 5: BDG7P The hydrolysis rate is measured by using human pancreatic α-amylase (HPA) or human salivary α-amylase (HSA) for each substrate (1.0 mM) at pH 7, and evaluating by means of relative values by taking the value of G5P as 1.

The target in assay [4] is T4, human salivary α-amylase (HSA) (Homo sapiens, UniProt P0DUB6).
T4 sequence (P0DUB6 16-511): T2 sequence (P0DUB6 16-511)
Described as above. Particulars: substrate 1.0 mM, pH 7, value of G5P taken as 1. The method, then: as §2

The test system of another assay is glucoamylase. The assay can be described thus: Action of glucoamylase on the modified oligosaccharide.

Where “and” joins values, the source holds several entries; their conditions need not be identical. Identical values can stand only once.

For `O=[N+]([O-])c1ccc(O[C@H]2O[C@H](CO)[C@@H](O[C@H]3O[C@H](CO)[C@@H](O[C@H]4O[C@H](CO)[C@@H](O[C@H]5O[C@H](CO)[C@@H](O[C@H]6O[C@H](CO)[C@@H](O)[C@H](O)[C@H]6O)[C@H](O)[C@H]5O)[C@H](O)[C@H]4O)[C@H](O)[C@H]3O)[C@H](O)[C@H]2O)cc1` [Substrate G5P], the Km (in general, the substrate concentration at which the rate is half of its maximum) at HPA [1] was 360 µM and 358 µM. At HPA [2], the “Hydrolysis product G2P” value is 73%, the “Hydrolysis product G3P” value is 12%, the “Hydrolysis product G4P” value is recorded as 0% and the “Hydrolysis product GP” value is 15%. For the same compound, at HSA, the “Hydrolysis product G2P” value was 83%, the “Hydrolysis product G3P” value came to 11%, the “Hydrolysis product G4P” value is on record as 0% and the “Hydrolysis product GP” value came to 6%. Besides, the “hydrolysis rate (relative value)” value in assay [3] is reported as 1.0. Also, the “hydrolysis rate (relative value)” value in assay [4] is recorded as 1.0.

As to `O=[N+]([O-])c1ccc(O[C@H]2O[C@H](CO)[C@@H](O[C@H]3O[C@H](CO)[C@@H](O[C@H]4O[C@H](CO)[C@@H](O[C@H]5O[C@H](CO)[C@@H](O[C@H]6O[C@H](CO)[C@@H](O[C@H]7O[C@H](CO)[C@@H](O[C@H]8O[C@@H]9COC(c%10ccccc%10)O[C@H]9[C@H](O)[C@H]8O)[C@H](O)[C@H]7O)[C@H](O)[C@H]6O)[C@H](O)[C@H]5O)[C@H](O)[C@H]4O)[C@H](O)[C@H]3O)[C@H](O)[C@H]2O)cc1` (some centres unmarked) [BDG7P], the Km at HPA [1] is 86 µM and 88.1 µM. On HPA [2], the “Hydrolysis product G2P” value is on record as 48%, the “Hydrolysis product G3P” value came out at 22%, the “Hydrolysis product G4P” value was 13% and the “Hydrolysis product GP” value is 7%. Besides, at HSA, the “Hydrolysis product G2P” value came out at 55%, the “Hydrolysis product G3P” value stood at 25%, the “Hydrolysis product G4P” value is given as 15% and the “Hydrolysis product GP” value was 5%. In assay [3], the “hydrolysis rate (relative value)” value is 1.1. Further, in assay [4], the “hydrolysis rate (relative value)” value came out at 1.0.

With `O=[N+]([O-])c1ccc(O[C@H]2O[C@H](CO)[C@@H](O[C@H]3O[C@H](CO)[C@@H](O[C@H]4O[C@H](CO)[C@@H](O[C@H]5O[C@H](CO)[C@@H](O[C@H]6O[C@H](CBr)[C@@H](O)[C@H](O)[C@H]6O)[C@H](O)[C@H]5O)[C@H](O)[C@H]4O)[C@H](O)[C@H]3O)[C@H](O)[C@H]2O)cc1` [BrG5P], the “action of glucoamylase on the substrate” value in the assay with glucoamylase is listed as “not acted by glucoamylase”.

Turning to `O=[N+]([O-])c1ccc(O[C@H]2O[C@H](CO)[C@@H](O[C@H]3O[C@H](CO)[C@@H](O[C@H]4O[C@H](CO)[C@@H](O[C@H]5O[C@H](CO)[C@@H](O[C@H]6O[C@H](COCc7ccccc7)[C@@H](O)[C@H](O)[C@H]6O)[C@H](O)[C@H]5O)[C@H](O)[C@H]4O)[C@H](O)[C@H]3O)[C@H](O)[C@H]2O)cc1` [BG5P, p-nitrophenyl O-(6-O-benzyl)-α-D-glycopyranosyl-(1→4)-O-α-D-glucopyranosyl-(1→4)-O-α-D-glucopyranosyl-(1→4)-O-α-D-glucopyranosyl-(1→4)-α-D-glucopyranoside], the Km at HPA [1] was 110 µM and 106 µM. Moreover, at HPA [2], the “Hydrolysis product G2P” value amounted to 95%, the “Hydrolysis product G3P” value is reported as 0%, the “Hydrolysis product G4P” value is reported as 0% and the “Hydrolysis product GP” value is given as 5%. Further, at HSA, the “Hydrolysis product G2P” value was found to be 98%, the “Hydrolysis product G3P” value was determined as 0%, the “Hydrolysis product G4P” value is on record as 0% and the “Hydrolysis product GP” value turned out to be 2%. Moreover, the “hydrolysis rate (relative value)” value in assay [3] was found to be 1.4. For the same compound, the “hydrolysis rate (relative value)” value in assay [4] was 1.4. Also, the “action of glucoamylase on the substrate” value in the assay on glucoamylase was “not acted by glucoamylase”.
